In US20250129430A1, “HIGH ATP-AFFINITY PROTEIN AS THERAPEUTIC TARGET FOR INTRACTABLE CANCER MOLECULAR SUBTYPES AND INHIBITOR THEREOF” (VeraVerse Co., Ltd., priority 2021, published 2025):

Assays:
Format in all cases: cell-based, human
FU97 = test: Cell viability drug screen, 12-point dose-response AUC; settings: FU97 cells; 72 hours; 12-point dose-response
Summary of the method: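 Trapezoidal AUC of a 12-point, DMSO-normalized dose-response curve. Luminescent viability was measured after 72 h of exposure at 37° C to half-log serial dilutions (0.5% DMSO control), dosed 24 h after plating FU97 cells at 5×10^3 per well.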

[1] = tested on: SEM-type gastric cancer cell line; test: Cell viability drug screen, AUC summary over SEM-type lines
Protocol: An FDA-approved small-molecule pharmacological compound (#L1300) and an anticancer compound for research (#L2000) were purchased from Selecckchem and a 10 mM solution was prepared in DMSO. A total of 1,345 compounds were tested the cell viability of the seven EMT gastric cancer cell lines.
Cells cultured for cell-based drug assay were inoculated into a 96-well white optical plate (Corning) at 5×10^3 cells per well. After 24 hours after inoculation, a 2.5 MJT (primary screen) or a half-log 12-serial diluent (secondary screen) of the pharmacological compound contained in DMSO is added to the cells with a robot using a BioMek FXp liquid processor (Beckman) to add to the cells at 50 mM. The final drug concentration in the 5 ns range and the DMSO specification control (0.5%) were calculated. The cells were then further incubated at 37° C. in a 5% CO2 incubator for 72 hours prior to measuring cell viability using the extra-GLO assay kit (Promega). The luminescent properties were measured after 15 min incubation at room temperature using a plate stacker equipped with a plate stacker. The normalized viability for the DMSO-based control was measured to generate a cell line-specific 12-point dose-response curve for each pharmacological compound, and then the area under the curve (AUC) was calculated using a trapezoidal method.

[2] = tested on: non-SEM-type gastric cancer cell line; test: Cell viability drug screen, AUC summary over non-SEM-type lines; settings: in the non-SEM-type gastric cancer cell line
NCC24 = test: Cell viability drug screen, 12-point dose-response AUC; settings: NCC24 cells; 72 hours; 12-point dose-response
Summary of the method: (§1)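 AUC values represent the area under DMSO-normalized 12-point curves, computed by trapezoid rule and averaged over repeated experiments. Each EMT-type gastric line was exposed to half-log serial concentrations for 72 h at 37 °C, and viability was measured with a Glo luminescence kit.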

SNU16 = test: as above; settings: SNU16 cells; 72 hours; 12-point dose-response
Summary of the method: as §1

SNU484 = test: as above; settings: SNU484 cells; 72 hours; 12-point dose-response
Summary of the method: as §1

MKN28 = test: as above; settings: MKN28 cells; 72 hours; 12-point dose-response
Summary of the method: as §1

AGS = test: as above; settings: AGS cells; 72 hours; 12-point dose-response
Summary of the method: (§2)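 Viability: luminescence (Glo kit, 15 min RT), normalized to 0.5% DMSO vehicle. Dosing: half-log, 12 concentrations, 72 h. Cells: 5×10^3/well, treated 24 h after plating. Value: trapezoidal AUC, mean of repeats.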

SNU638 = test: as above; settings: SNU638 cells; 72 hours; 12-point dose-response
Summary of the method: as §1

MKN1 = test: as above; settings: MKN1 cells; 72 hours; 12-point dose-response
Summary of the method: as §1

Hs746T = test: as above; settings: Hs746T cells; 72 hours; 12-point dose-response
Summary of the method: as §1

NCI_N87 = test: as above; settings: NCI_N87 cells; 72 hours; 12-point dose-response
Summary of the method: as §1

SNU668 = test: as above; settings: SNU668 cells; 72 hours; 12-point dose-response
Summary of the method: as §1

SNU1 = test: as above; settings: SNU1 cells; 72 hours; 12-point dose-response
Summary of the method: as §1

NCC19 = test: as above; settings: NCC19 cells; 72 hours; 12-point dose-response
Summary of the method: as §1

MKN74 = test: as above; settings: MKN74 cells; 72 hours; 12-point dose-response
Summary of the method: as §2

SNU1750 = test: as above; settings: SNU1750 cells; 72 hours; 12-point dose-response
Summary of the method: as §1

OCUM1 = test: as above; settings: OCUM1 cells; 72 hours; 12-point dose-response
Summary of the method: as §1

SNU1967 = test: as above; settings: SNU1967 cells; 72 hours; 12-point dose-response
Summary of the method: as §1

SNU620 = test: as above; settings: SNU620 cells; 72 hours; 12-point dose-response
Summary of the method: as §1

SNU601 = test: as above; settings: SNU601 cells; 72 hours; 12-point dose-response
Summary of the method: as §1

YCC11 = test: as above; settings: YCC11 cells; 72 hours; 12-point dose-response
Summary of the method: as §1

YCC2 = test: as above; settings: YCC2 cells; 72 hours; 12-point dose-response
Summary of the method: as §1

SK4 = test: as above; settings: SK4 cells; 72 hours; 12-point dose-response
Summary of the method: as §1

KATO3 = test: as above; settings: KATO3 cells; 72 hours; 12-point dose-response
Summary of the method: as §1

NCC20 = test: as above; settings: NCC20 cells; 72 hours; 12-point dose-response
Summary of the method: as §1

SNU719 = test: as above; settings: SNU719 cells; 72 hours; 12-point dose-response
Summary of the method: as §2

YCC3 = test: as above; settings: YCC3 cells; 72 hours; 12-point dose-response
Summary of the method: as §1

MKN45 = test: as above; settings: MKN45 cells; 72 hours; 12-point dose-response
Summary of the method: as §2

NCC59 = test: as above; settings: NCC59 cells; 72 hours; 12-point dose-response
Summary of the method: as §1

SNU216 = test: as above; settings: SNU216 cells; 72 hours; 12-point dose-response
Summary of the method: as §2

SMILES	area under the viability curve (AUC), normalized (FU97)	normalized viability AUC [1]	AUC value [2]	area under the viability curve (AUC), normalized (NCC24)	area under the viability curve (AUC), normalized (SNU16)	area under the viability curve (AUC), normalized (SNU484)	area under the viability curve (AUC), normalized (MKN28)	area under the viability curve (AUC), normalized (AGS)	area under the viability curve (AUC), normalized (SNU638)	area under the viability curve (AUC), normalized (MKN1)	area under the viability curve (AUC), normalized (Hs746T)	area under the viability curve (AUC), normalized (NCI_N87)	area under the viability curve (AUC), normalized (SNU668)	area under the viability curve (AUC), normalized (SNU1)	area under the viability curve (AUC), normalized (NCC19)	area under the viability curve (AUC), normalized (MKN74)	area under the viability curve (AUC), normalized (SNU1750)	area under the viability curve (AUC), normalized (OCUM1)	area under the viability curve (AUC), normalized (SNU1967)	area under the viability curve (AUC), normalized (SNU620)	also measured
COc1ncc(-c2ccc3nccc(-c4ccnnc4)c3c2)cc1NS(=O)(=O)c1ccc(F)cc1F [GSK2126458]	−1.393	negative	high	−1.197	0.6494	0.4641	0.15	−2.286	0.9531	−1.1278	−0.063	−1.3463	1.587	−0.6492	0.4665	0	−0.5071	1.227	1.044	−0.7945	area under the viability curve (AUC), normalized (SNU601): 0.1047; area under the viability curve (AUC), normalized (YCC11): −1.373; area under the viability curve (AUC), normalized (YCC2): −0.9259; area under the viability curve (AUC), normalized (SK4): −2.466; area under the viability curve (AUC), normalized (KATO3): 3.911; area under the viability curve (AUC), normalized (NCC20): −1.107; area under the viability curve (AUC), normalized (SNU719): 5.211; area under the viability curve (AUC), normalized (YCC3): 0.9745; area under the viability curve (AUC), normalized (MKN45): 0.05353; area under the viability curve (AUC), normalized (NCC59): 2.2975; area under the viability curve (AUC), normalized (SNU216): −0.4775
Cc1cnc(NC(=O)Nc2cc(Br)c(C)cc2OC[C@@H]2CNCCO2)cn1 [LY2603618]	0.7111	negative	high	−1.445	1.467	0.3141	−0.1902	−0.3593	−0.05048	−1.023	−0.107	0.8771	0.1713	−0.3399	1.2209	−0.9084	−0.4819	−0.6831	−0.9616	0	area under the viability curve (AUC), normalized (SNU601): 0.2367; area under the viability curve (AUC), normalized (YCC11): −2.027; area under the viability curve (AUC), normalized (YCC2): 0.04045; area under the viability curve (AUC), normalized (SK4): −1.698; area under the viability curve (AUC), normalized (KATO3): 1.256; area under the viability curve (AUC), normalized (NCC20): 0.01673; area under the viability curve (AUC), normalized (SNU719): 2.404; area under the viability curve (AUC), normalized (YCC3): 0.2305; area under the viability curve (AUC), normalized (MKN45): −0.9472; area under the viability curve (AUC), normalized (NCC59): 0.9326; area under the viability curve (AUC), normalized (SNU216): 0.2462
C[C@@H]1O[C@@H](O[C@H]2C[C@@H](O)[C@]3(CO)[C@H]4[C@H](O)C[C@]5(C)[C@@H](C6=CC(=O)OC6)CC[C@]5(O)[C@@H]4CC[C@]3(O)C2)[C@H](O)[C@H](O)[C@H]1O [Oubain, Ouabain]	−0.3889	negative	high	−0.2417	2.229	−2.03	−0.5183	−0.4351	1.054	−1.223	0.3093	0.9192	−1.026	−0.4741	0.3874	−0.9472	−0.7374	0.1113	0.9873	0	area under the viability curve (AUC), normalized (SNU601): 2.702; area under the viability curve (AUC), normalized (YCC11): −0.3494; area under the viability curve (AUC), normalized (YCC2): −0.6785; area under the viability curve (AUC), normalized (SK4): −1.414; area under the viability curve (AUC), normalized (KATO3): 4.783; area under the viability curve (AUC), normalized (NCC20): 0.2365; area under the viability curve (AUC), normalized (SNU719): 5.038; area under the viability curve (AUC), normalized (YCC3): 4.209; area under the viability curve (AUC), normalized (MKN45): −0.3665; area under the viability curve (AUC), normalized (NCC59): 1.567; area under the viability curve (AUC), normalized (SNU216): 0.2009
